Source: patent US9290464B2 (priority 2010, dated 2016)

Assays:
malonate-induced mouse = test: Striatum damage in malonate-induced mouse (TTC staining); format: in vivo, ICR mice; settings: 5 mg/kg i.p., five times; TTC staining 3 days after malonate; FIGS. 7 and 8
Method: 5 ml/kg of equithesin was administered to each mouse via intraperitoneal injection to be anesthetized, two levelers of a stereotactic instrument were set at 0 mm from both external auditory canals, and the skull of the mouse was perforated in the stereotactic instrument. 0.2 mg/ml of ascorbic acid was used as a control, and 2.4 umole/2 of malonate was injected into a lesion group and a compound treatment group 0.5 mm forward (AP) and 1.2 mm sideward from striatum on the right side (bregma) and 3.1 mm downward from dura matter by using a Hamilton syringe (10 μl, 26G needle) at a rate of 1 uL/min. The groups administered with malonate were divided into two groups, and 0.5 ml/kg of excipient (n=12) and 5 mg/kg of CBI (n=14) were respectively administered to the two groups via intraperitoneal injection 2 hours before an operation and administered again 1 hour, 1 day, 2 days and 3 days after the operation, i.e., total five times. Malonate was injected into striatum of the mouse, the mouse was sacrificed after 3 days, and the brain was taken out of the mouse to prepare a section. Thereafter, the section was stained with 2,3,5-triphenyltetrazolium chloride (TTC).

dopamine transporter = test: Dopamine transporter binding assay ([125I]PE2I) on striatum sections of MPTP-induced monkey; format: in vivo, Macaque monkeys; settings: FIG. 2
[1] = test system: catalase, superoxide dismutase (SOD) and glutathione peroxidase (GPx); test: Activities of antioxidative enzymes in MPP+-treated cells; format: cell-based, human; settings: 2 mM MPP+, 24 hours; FIG. 21
Method: In this embodiment, MAO-B-deficient human neuroblastoma SH-SY5Y cells (Korean Cell Line Bank) were used. The SH-SY5Y cells were distributed into a 6-well plate at a concentration of 1.8×10^5 cells/well, and then incubated with 5% of CO2 at 37° C. for 24 hours. The resulting cells were divided into three groups, 2 mM of MPP^+ was added to each group, two of the three groups were respectively treated 0.1, and the resultant was further incubated with 5% of CO2 at 37° C. for 24 hours. The control group which was not treated with MPP^+ was incubated under the same conditions as described above. Subsequently, cell extracts were obtained from the cells, and thus the activities of antioxidative enzymes, i.e., catalase, superoxide dismutase (SOD) and glutathione peroxidase (GPx) were measured.

cytochrome c = test: Release of cytochrome c into cytoplasm (western blot) in MPP+-treated cells; format: cell-based, human; settings: MPP+-added neurons; FIG. 17
From the text: In addition, apoptosis is known to be caused by mechanisms of release of cytochrome c from mitochondria and activation of caspase 3 (The New England journal of Medicine, 348:1365-1375 (2003)). To confirm whether or not the stability of the transmembrane potential of mitochondria by the treatment of CBI is associated with anti-apoptosis of neurons, cell extracts were obtained from the groups of cells, and thus the amount of cytochrome c and the activity of caspase 3 in the cell cytoplasm were measured.
SH-SY5Y cells were incubated under the same conditions as described in Example 7, and then washed with PBS. A protease inhibitor cocktail (Roche) and a phosphatase inhibitor cocktail (Roche) were added to a […] buffer (20 mM HEPES, 10 mM KCl, 2 mM MgCl2, 1 mM EDTA), and the SH-SY5Y cells were treated with 100 ul of the resulting solution and then suspended uniformly. The resultant was maintained on ice for 30 minutes, and then centrifuged at 12,000 rpm for 20 minutes. Subsequently, the same amount of the supernatant was loaded onto a SDS-PAGE gel followed by electrophoresis, the gel was transferred onto a nitrocellulose membrane, the membrane was blotted using cytochrome c (Santacruz, sc13156) diluted to 1:2000 by using a well-known method in the art, and the expression of cytochrome c was evaluated using ECL kit (Amersham Pharmacia).

[2] = test system: MAO-B-deficient human neuroblastoma SH-SY5Y cells; test: Reactive oxygen species (DCF-DA staining) in MPP+-treated cells; format: cell-based; settings: 2 mM MPP+, 50 nM, 24 hours; FIGS. 19 and 20
Method: In this embodiment, MAO-B-deficient human neuroblastoma SH-SY5Y cells (Korean Cell Line Bank) were used. The cells were cultured in a DMEM medium at 37° C. with 5% of CO2 for 24 hours. The cultured cells were divided into three groups, 2 mM of MPP^+ was added to each group, one of the three groups was treated with 50 nM of CBI, one of the other two groups was treated with 50 nM of rasagiline, and the three groups were further incubated with 5% of CO2 at 37° C. for 24 hours. The group with only MPP^+ added thereto was incubated under the same conditions as described above. Subsequently, the cells were stained with 2,7-dichlorofluorescein diacetate (DCF-DA), which is a fluorescence dye capable of detecting reactive oxygen species, and then observed using a confocal microscope (Nikon Co., Japan).

MPTP-induced mouse [3] = test: Concentration of dopamine in striatum of MPTP-induced mouse (HPLC); format: in vivo, C57BL/6 mice; settings: 1 mg/kg oral once a day, FIG. 4
Method: 7 days after the compounds described above are respectively administered to the three groups, the mice in each group were sacrificed by cervical dislocation and brain tissues were immediately taken out of the mice. Striatum was collected from the brain tissue, 0.5 ml of a HPLC assay diluent (0.1 M HClO4, 0.1 mM EDTA) was added to the striatum, and a tissue homogenate was then prepared using an ultrasonic processor. The homogenate was centrifuged at 12,000 rpm for 15 minutes, and the supernatant was filtered with a nitrocellulose filter (0.2 um, Millipore). For HPLC analysis, HR-80 column (80 mm×4.6 mm, particle size: 3 μm ESA, USA) was used, the flow rate of a mobile phase (0.07 M monobasic sodium phosphate, 1 mM sodium octasulfonic acid, 0.1 uM EDTA, 5% acetonitrile, pH 3.2) was maintained at 0.7 ml/min, and the electrode potential of an electrochemical detector (Coulochem III, ESA, USA) was at E1=−100 mV, E2=350 mV.

MPTP-induced mouse [4] = test: Number of neurites and spines per neuron in MPTP-induced mouse (confocal microscopy); format: in vivo, C57BL/6 mice; settings: 1 mg/kg oral once a day for 10 days after MPTP
Method: To observe whether or not the number of neurites and spines per neuron in the tissues was increased, a coronal slice with a thickness of 200 um containing striatum or substantia nigra was prepared using a vibratome. Each group of mice was sacrificed, and the brain was taken out of each group and then placed in a cold, highly-concentrated sucrose dissection buffer bubbled with carbogen (5% CO2 and 95% O2) (87 mM NaCl, 2.5 mM KCl, 1.25 mM NaH2PO4, 25 mM NaHCO3, 1 mM CaCl2, 3 mM MgCl2, 10 mM dextrose, and 75 mM sucrose). While the vibratome was performed, a slicing chamber was filled with the uniformly carbogenated sucrose dissection buffer. After the slicing process was terminated, all the slices were washed with PBS, and fixed with 4% paraformaldehyde in a PBS solution. The fixed brain slices were placed on a 1.5% agarose (in PBS) block. Images thereof were obtained using a confocal microscope (ZEISS LSM 510 META) by using Zeiss LSM image browser software (Carl Zeiss Microimaging, Germany, version 4.0 SP2).

SMILES: NC(=O)OCc1cc(-c2ccc(OCc3ccccc3)cc2)no1 [CBI, carbamic acid 3-(4-benzyloxy-phenyl)-isoxazole-5-yl methylester]
- damaged regions of the striatum induced by malonate (malonate-induced mouse): significantly reducing damaged regions of the striatum
- dopamine transporters in medial striatum and caudal striatum (dopamine transporter; 1 mg/kg oral for 4 weeks after MPTP): a large number of dopamine transporters
- amount of dopamine transporters compared with rasagiline group (dopamine transporter; same amount (1 mg/kg) of rasagiline): significantly larger amount of dopamine transporters
- activity of the antioxidative enzymes decreased by MPP+ [1]: an increase in a decreased activity of the antioxidative enzymes
- amount of cytochrome c in the cytoplasm (cytochrome c): decreased
- amount of cytochrome c released from mitochondria compared with same amount of rasagiline (cytochrome c): smaller
- reactive oxygen species [2]: significantly decreased
- restoration of the concentration of dopamine in striatum compared with normal mice (MPTP-induced mouse [3]): about 70%
- number of neurites (MPTP-induced mouse [4]; FIG. 23): increased
- number of spines (MPTP-induced mouse [4]; FIG. 24): recovered to the level of normal cells
